Laboratory results published in ChEMBL document CHEMBL3392990, “Multifunctional coumarin derivatives: monoamine oxidase B (MAO-B) inhibition, anti-β-amyloid (Aβ) aggregation and metal chelation properties against Alzheimer's disease” (Bioorg Med Chem Lett, 2015).

How the values were obtained:
[1] = target: Amyloid-beta precursor protein (Homo sapiens) (UniProt P05067); assay: Inhibition of amyloid beta (1 to 42) (unknown origin) self-induced aggregation at 20 uM after 46 to 48 hrs by thioflavin-T fluorescence method
[2] = target: T1, Amine oxidase [flavin-containing] A (Homo sapiens, UniProt P21397); assay: Inhibition of human recombinant MAO-A using p-tyramine as substrate assessed as H2O2 production at 100 uM after 15 mins by fluorescence assay; settings: 0.25 h
T1 sequence (P21397 whole entry): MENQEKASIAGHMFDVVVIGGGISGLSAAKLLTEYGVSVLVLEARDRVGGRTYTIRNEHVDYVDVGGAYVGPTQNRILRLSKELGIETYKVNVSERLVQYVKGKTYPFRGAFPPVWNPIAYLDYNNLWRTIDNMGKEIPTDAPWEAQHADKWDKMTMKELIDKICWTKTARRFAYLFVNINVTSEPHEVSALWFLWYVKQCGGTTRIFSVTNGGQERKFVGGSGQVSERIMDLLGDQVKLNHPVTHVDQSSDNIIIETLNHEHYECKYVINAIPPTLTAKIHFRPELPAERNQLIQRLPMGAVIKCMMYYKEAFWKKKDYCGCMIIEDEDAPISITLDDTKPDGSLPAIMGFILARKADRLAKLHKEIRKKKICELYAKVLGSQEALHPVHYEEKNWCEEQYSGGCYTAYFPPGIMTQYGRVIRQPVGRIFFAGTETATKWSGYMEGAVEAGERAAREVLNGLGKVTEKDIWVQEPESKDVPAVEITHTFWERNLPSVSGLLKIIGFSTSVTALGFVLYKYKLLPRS

[3] = target: T2, Amine oxidase [flavin-containing] B (Homo sapiens, UniProt P27338); assay: Inhibition of human recombinant MAO-B using p-tyramine as substrate assessed as H2O2 production after 15 mins by fluorescence assay
T2 sequence (P27338 whole entry): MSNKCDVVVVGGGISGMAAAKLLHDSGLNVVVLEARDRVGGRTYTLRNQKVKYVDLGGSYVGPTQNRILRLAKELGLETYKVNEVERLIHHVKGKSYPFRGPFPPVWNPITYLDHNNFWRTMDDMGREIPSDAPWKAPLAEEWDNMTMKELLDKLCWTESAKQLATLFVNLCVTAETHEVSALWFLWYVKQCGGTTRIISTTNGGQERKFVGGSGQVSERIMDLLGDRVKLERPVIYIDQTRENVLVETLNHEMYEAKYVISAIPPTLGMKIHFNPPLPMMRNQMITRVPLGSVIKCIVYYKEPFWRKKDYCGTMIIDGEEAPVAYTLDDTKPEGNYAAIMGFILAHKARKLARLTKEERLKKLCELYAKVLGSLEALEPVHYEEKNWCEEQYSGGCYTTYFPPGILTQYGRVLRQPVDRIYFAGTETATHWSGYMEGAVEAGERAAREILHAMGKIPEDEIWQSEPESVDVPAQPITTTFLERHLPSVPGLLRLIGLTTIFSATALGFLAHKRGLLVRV

[4] = Permeability of the compound after 16 hrs by PAMPA; format: ADME; settings: read-out: Peff
[5] = target: T2, Amine oxidase [flavin-containing] B; assay: Irreversible inhibition of human MAO-B at 2 times IC50 using p-tyramine as substrate assessed as H2O2 production after 0 to 60 mins
[6] = Metal chelating activity of the compound assessed as formation of copper complex at 35 uM by UV-Vis spectrophotometry; format: physicochemical
[7] = Cytotoxicity against rat PC12 cells assessed as cell viability at 1 to 100 uM after 24 hrs by MTT assay; format: cell-based; settings: pc-12, 24 h
[8] = Cytotoxicity against human SH-SY5Y cells assessed as cell viability at 1 to 100 uM after 24 hrs by MTT assay; format: cell-based
[9] = target: T2, Amine oxidase [flavin-containing] B; assay: Ratio of pargyline IC50 to compound IC50 for human recombinant MAO-B

Amyloid-beta precursor protein (Homo sapiens), sequence (P05067 whole entry): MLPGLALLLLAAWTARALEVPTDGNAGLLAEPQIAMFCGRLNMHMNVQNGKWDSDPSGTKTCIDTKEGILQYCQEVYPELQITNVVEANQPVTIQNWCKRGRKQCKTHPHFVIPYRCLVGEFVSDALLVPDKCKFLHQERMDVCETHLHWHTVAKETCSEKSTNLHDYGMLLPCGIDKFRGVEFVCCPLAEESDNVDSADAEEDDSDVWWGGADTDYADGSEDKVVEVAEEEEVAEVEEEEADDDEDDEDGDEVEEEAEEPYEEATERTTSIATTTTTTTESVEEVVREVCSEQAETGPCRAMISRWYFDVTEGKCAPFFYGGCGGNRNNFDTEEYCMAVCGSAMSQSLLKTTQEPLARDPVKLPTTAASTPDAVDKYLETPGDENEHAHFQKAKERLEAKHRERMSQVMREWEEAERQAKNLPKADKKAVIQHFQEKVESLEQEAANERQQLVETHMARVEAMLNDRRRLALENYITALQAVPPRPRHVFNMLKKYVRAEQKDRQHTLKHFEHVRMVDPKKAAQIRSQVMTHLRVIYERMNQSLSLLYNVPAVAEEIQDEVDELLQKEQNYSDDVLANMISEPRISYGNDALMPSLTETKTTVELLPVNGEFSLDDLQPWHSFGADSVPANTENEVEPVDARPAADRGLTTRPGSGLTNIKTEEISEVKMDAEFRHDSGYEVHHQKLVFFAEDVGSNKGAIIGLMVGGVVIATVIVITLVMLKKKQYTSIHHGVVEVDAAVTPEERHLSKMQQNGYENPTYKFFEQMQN

Row | inhibition [1] [%] | inhibition at 100 µM [2] [%] | IC50 [3] [µM] | Papp at 16 h [4] [×10⁻⁶ cm/s] | SMILES | also measured
1 | 47.6 |  |  |  | Cc1c(Cl)c(=O)oc2cc(NCc3ccccc3O)ccc12 | 
2 | 56.4 | 67.6 | 0.217 | 4.7 | O=c1oc2cc(/N=C/c3ccc(O)cc3O)ccc2c2c1CCC2 | 
3 |  |  |  | 8.33 | C[C@]12CC[C@@H]3c4ccc(O)cc4CC[C@H]3[C@@H]1CC[C@@H]2O [ESTRADIOL] | 
4 | 44.8 | 47.2 | 0.723 |  | Cc1cc(=O)oc2cc(/N=C/c3ccccc3O)ccc12 | 
5 | 50.2 |  |  |  | COc1ccc(/C=N/c2ccc3c(C)cc(=O)oc3c2)c(O)c1 | 
6 | 49.4 |  |  |  | Cc1ccc(/C=N/c2ccc3c(C)cc(=O)oc3c2)c(O)c1 | 
7 |  |  |  | 1.72 | CN1C(C(=O)Nc2ccccn2)=C(O)c2ccccc2S1(=O)=O [PIROXICAM] | 
8 | 58.5 | 22.6 | 3.42 |  | O=c1oc2cc(/N=C/c3ccc(O)cc3O)ccc2c2c1CCCC2 | 
9 | 53.9 |  |  | 10.6 | Cc1c(C)c2ccc(/N=C/c3ccccc3O)cc2oc1=O | 
10 | 50.3 |  |  |  | Cc1cc(=O)oc2cc(/N=C/c3ccc(O)cc3O)ccc12 | 
11 |  |  |  | 0.83 | NCCc1ccc(O)c(O)c1 [DOPAMINE] | 
12 | 53.7 | 17.2 | 0.841 |  | O=c1oc2cc(/N=C/c3ccccc3O)ccc2c2c1CCCC2 | 
13 | 47.7 |  |  | 12.3 | Cc1c(C)c2ccc(NCc3ccccc3O)cc2oc1=O | 
14 | 57.6 |  |  | 6.7 | Cc1c(C)c2ccc(/N=C/c3ccc(O)cc3O)cc2oc1=O | 
15 | 43.7 | 53.6 | 1.24 |  | O=c1oc2cc(NCc3ccccc3O)ccc2c2c1CCCC2 | 
16 | 49.3 |  |  |  | Cc1c(Cl)c(=O)oc2cc(/N=C/c3ccccc3O)ccc12 | 
17 |  |  |  | 1.09 | C[C@]12C[C@H](O)[C@H]3[C@@H](CCC4=CC(=O)CC[C@@]43C)[C@@H]1CC[C@@H]2C(=O)CO [CORTICOSTERONE] | 
18 | 32.6 |  |  |  | Cc1cc(=O)[nH]c2cc(NCc3ccccc3O)ccc12 | 
19 | 35.6 | 54.2 | 12.3 |  | Cc1cc(=O)[nH]c2cc(/N=C/c3ccccc3O)ccc12 | 
20 | 51.5 |  |  |  | Cc1cc(=O)oc2cc(/N=C/c3ccc(Br)cc3O)ccc12 | 
21 | 49.1 | 17.7 | 1.68 |  | Cc1c(C)c2ccc(/N=C/c3ccccc3O)cc2[nH]c1=O | 
22 | 41.6 | 23.6 | 9.33 |  | O=c1oc2cc(NCc3ccccc3O)ccc2c2c1CCC2 | 
23 | 52.9 | 3.5 | 0.081 | 8.9 | O=c1oc2cc(/N=C/c3ccccc3O)ccc2c2c1CCC2 | inhibition (INH) [5]: Active; Activity [6]: Active; Activity [7]: Non-toxic; Activity [8]: Non-toxic; Ratio IC50 [9]: 2
24 | 60.2 |  |  |  | Cc1c(Cl)c(=O)oc2cc(/N=C/c3ccc(O)cc3O)ccc12 | 
25 | 36.1 | 39.4 | 20.1 |  | Cc1cc(=O)oc2cc(NCc3ccccc3O)ccc12 | 
